Test results: BindingDB's records for doi:10.1016/j.bmcl.2007.11.068 (Johnson & Johnson Pharmaceutical Research and Development, 2008)

Legend:
[1] = target: T1, Alpha-1B adrenergic receptor (Homo sapiens, UniProt P35368)
T1 sequence (P35368 whole entry): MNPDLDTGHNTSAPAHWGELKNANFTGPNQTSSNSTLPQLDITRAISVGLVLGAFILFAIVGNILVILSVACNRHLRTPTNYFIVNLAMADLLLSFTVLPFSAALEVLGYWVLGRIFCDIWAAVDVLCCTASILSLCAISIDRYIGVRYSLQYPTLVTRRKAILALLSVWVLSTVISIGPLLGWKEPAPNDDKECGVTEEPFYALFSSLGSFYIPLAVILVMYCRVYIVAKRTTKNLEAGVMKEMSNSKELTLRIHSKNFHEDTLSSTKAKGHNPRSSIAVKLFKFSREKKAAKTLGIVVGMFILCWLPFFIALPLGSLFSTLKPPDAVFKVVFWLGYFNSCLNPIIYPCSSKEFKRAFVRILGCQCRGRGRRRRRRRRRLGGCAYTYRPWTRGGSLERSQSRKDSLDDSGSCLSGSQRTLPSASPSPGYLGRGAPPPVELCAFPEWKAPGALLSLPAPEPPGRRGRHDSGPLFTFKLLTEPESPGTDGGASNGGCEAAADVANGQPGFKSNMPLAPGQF

[2] = target: T2, Alpha-1D adrenergic receptor (Homo sapiens, UniProt P25100)
T2 sequence (P25100 whole entry): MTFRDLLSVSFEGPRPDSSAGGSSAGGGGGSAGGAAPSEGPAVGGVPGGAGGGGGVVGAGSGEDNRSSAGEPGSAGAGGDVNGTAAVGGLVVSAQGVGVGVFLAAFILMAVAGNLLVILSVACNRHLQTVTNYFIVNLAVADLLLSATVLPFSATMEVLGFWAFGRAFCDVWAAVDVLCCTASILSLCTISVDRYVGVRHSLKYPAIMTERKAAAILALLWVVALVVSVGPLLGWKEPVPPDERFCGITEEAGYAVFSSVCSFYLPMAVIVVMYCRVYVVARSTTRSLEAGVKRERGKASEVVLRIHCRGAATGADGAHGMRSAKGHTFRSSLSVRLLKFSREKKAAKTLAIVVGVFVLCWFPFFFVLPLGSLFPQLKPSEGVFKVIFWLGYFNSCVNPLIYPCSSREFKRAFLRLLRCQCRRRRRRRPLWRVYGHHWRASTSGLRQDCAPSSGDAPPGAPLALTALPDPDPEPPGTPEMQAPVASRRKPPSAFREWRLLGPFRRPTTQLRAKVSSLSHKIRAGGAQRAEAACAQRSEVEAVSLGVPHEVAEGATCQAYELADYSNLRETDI

## CCOc1ccccc1OCCNC(C)Cc1ccc(OC)c(S(N)(=O)=O)c1 (configuration not stated) [NSC_60147]
[1]
  Ki: 2 nM
[2]
  Ki: 0.2 nM
